Experimental data as given in patent US5985824A, “Methods and compositions for treating cystic fibrosis” (priority 1997, dated 1999).
“Also recorded” adds a separate entry of the source.

Tests used:
[1] = system: ΔF508-CFTR (C127-ΔF508-low cells); assay: immunoprecipitation analysis for mature band C-CFTR in C127-ΔF508-low cells; format: cell-based; settings: DSG 10 to 100 μg/ml, 48 to 72 h
Excerpt: Detailed procedures for preparing cell lysates, immunoprecipitation, phosphorylation of CFTR using protein kinase A and [γ^32 P]ATP, and polyacrylamide gel electrophoresis have all been described previously (Cheng et al., (1995), supra.; Marshall et al., supra.).
C127-ΔF508-low (mouse mammary tumor) is a recombinant cell line stably transfected with the cDNA encoding the mutant ΔF508-CFTR (Cheng et al. (1995), supra.; Marshall et al. (1994), J. Biol. Chem. 269: 2987-2995). […] C127-mock is a cell line that has been stably transfected with the backbone of the expression vector used to generate C127-ΔF508-low (Cheng et al. (1995), supra.). LLCPK1 -ΔF508 (pig kidney epithelial) is a recombinant cell line stably expressing low levels of the mutant ΔF508-CFTR protein (Marshall et al., supra.). The details of the generation, characterization and routine propagation of these cell lines has been described (Cheng et al. (1995), supra.; Marshall et al., supra.).
To test whether treatment with DSG may interfere with the ability of hsp70 to retain ΔF508-CFTR in the ER, recombinant C127 cells expressing ΔF508-CFTR were seeded onto glass coverslips and were exposed to DSG (10 to 100 μg/ml) (Bristol Myers Squibb, Seattle, Wa.) for 48 to 72 h. Analysis for evidence of mature band C-CFTR (Cheng et al. (1990), supra.) which would be indicative of processing of ΔF508-CFTR in the Golgi was performed. […]

[2] = system: ΔF508-CFTR (LLCPK1-ΔF508 cells); assay: SPQ assay, cAMP-stimulated Cl- channel activity, LLCPK1-ΔF508 cells; format: cell-based
Procedure: (§1) The cAMP-dependent CFTR Cl^- channel activity was assessed using the halide-sensitive fluorophore 6-methoxy-N-(3-sulfopropyl)-quinolinium (SPQ) essentially as described previously (Cheng et al., (1995), supra.; Marshall et al., supra.). Briefly, the cells were treated with different amounts of DSG for the times specified. At the end of the treatment period, the cells were loaded with SPQ by hypotonic shock for 4 min at room temperature. SPQ fluorescence initially was quenched by incubating the cells for up to 30 min in a NaI buffer (135 mM NaI, 2.4 mM K2 HPO4, 0.6 mM KH2 PO4, 1 mM MgSO4, 1 mM CaSO4, 10 mM dextrose, and 10 mM N-2 hydroxyethylpiperazine-N'2-ethanesulfonic acid, pH 7.4). After measuring the baseline fluorescence (Fo) for 2 min., the NaI solution was replaced with one containing 135 mM NaNO3, and fluorescence was measured for another 16 min. […]
(§2) An increase in halide permeability is reflected by a more rapid increase in SPQ fluorescence. […] Differences in absolute levels reflect quantitative differences between groups in SPQ loading, size of cells, or number of cells studied. The data are presented as means± SE of fluorescence at time t (Ft) minus the baseline fluorescence (Fo, the average fluorescence measured in the presence of I^- for 2 min. before ion substitution) and are representative of results obtained under each condition. […]

[3] = system: ΔF508-CFTR (JME/CF15 cells); assay: SPQ assay, cAMP-stimulated Cl- channel activity, JME/CF15 cells; format: cell-based, human
Procedure: The cAMP-dependent CFTR Cl^- channel activity was assessed using the halide-sensitive fluorophore 6-methoxy-N-(3-sulfopropyl)-quinolinium (SPQ) essentially as described previously (Cheng et al., (1995), supra.; Marshall et al., supra.). Briefly, the cells were treated with different amounts of DSG for the times specified. At the end of the treatment period, the cells were loaded with SPQ by hypotonic shock for 4 min at room temperature. SPQ fluorescence initially was quenched by incubating the cells for up to 30 min in a NaI buffer (135 mM NaI, 2.4 mM K2 HPO4, 0.6 mM KH2 PO4, 1 mM MgSO4, 1 mM CaSO4, 10 mM dextrose, and 10 mM N-2 hydroxyethylpiperazine-N'2-ethanesulfonic acid, pH 7.4). After measuring the baseline fluorescence (Fo) for 2 min., the NaI solution was replaced with one containing 135 mM NaNO3, and fluorescence was measured for another 16 min. Forskolin (20 μM) and 3-isobutyl-1-methyl-xanthine (IBMX) (100 μM) were added 5 min after the anion substitution to increase intracellular levels of cAMP.
An increase in halide permeability is reflected by a more rapid increase in SPQ fluorescence. It is the rate of change rather than the absolute change in signal that is the important variable in evaluating anion permeability. Differences in absolute levels reflect quantitative differences between groups in SPQ loading, size of cells, or number of cells studied. The data are presented as means± SE of fluorescence at time t (Ft) minus the baseline fluorescence (Fo, the average fluorescence measured in the presence of I^- for 2 min. before ion substitution) and are representative of results obtained under each condition.
For each experiment, between 50 to 100 cells were examined on a given day and studies under each condition were repeated on at least two days. […] There was a broad spectrum in the rate of change in SPQ fluorescence observed with responsive cells. Normally, cells were scored as responsive if they generated a minimum of a […] change in the rate of increase in SPQ fluorescence following stimulation with cAMP agonists. […]

ΔF508-CFTR (CFT1 cells) = assay: SPQ assay, cAMP-stimulated Cl- channel activity, CFT1 cells; format: cell-based, human
Procedure: as §1, §2

[4] = system: ΔF508-CFTR (C127-ΔF508-low cells); assay: SPQ halide efflux assay, cAMP-stimulated Cl- channel activity, C127-ΔF508-low cells; format: cell-based; settings: FIG. 1E

N=C(N)NCCCCCCC(=O)NC(O)C(=O)NCCCCNCCCN (stereo not drawn) [DSG, deoxyspergualin]
mature band C form of CFTR [1]: the presence of any mature band C-form of CFTR could not be demonstrated; also recorded: no discernible evidence of the mature band C form of CFTR | cAMP-stimulated Cl- channel activity, in words [2]: marginal; also recorded: Data similar to those described for C127-ΔF508-low cells | cAMP-stimulated Cl- channel activity, in words ([3]; 72 h): more robust than that attained when cells were cultured at low temperature; also recorded: a greater number of responsive cells was observed when 10 μg/ml of DSG was used instead of 5 μg/ml; also recorded: no further significant increment in response was noted at concentrations higher than 10 μg/ml; also recorded: increased cAMP-mediated chloride channel activity; also recorded: comparable to that observed when these cells were cultured at a reduced temperature; also recorded: displayed cAMP-responsive Cl^- channel activity | percentage of mature CFTR produced from CFTRΔF508 upon exposure to reduced temperatures ([3]; FIG. 4): increases upon exposure to reduced temperatures | cAMP-stimulated Cl- channel activity, in words (ΔF508-CFTR (CFT1 cells)): very similar results | percentage of mature CFTR produced from CFTR-ΔF508 upon exposure to reduced temperatures [4]: increases upon exposure to reduced temperatures
